Source: US20110152091A1, “Herbicidal Compositions Comprising Flufenacet” (BAYER CROPSCIENCE AG, priority 2009, published 2011)

Assays:
Format in all cases: in vivo
[1] = test system: Poa annua (POAAN); assay: Greenhouse trial: PE soil application vs incorporation into the soil (test methods 1, 3 and 4); settings: g of AS/ha: A 75, B 60, C 70, mixture 75 + 60 + 70
Protocol: (§1) In the standard design of the test, seeds of various broad-leaved weed and weed grass biotypes (origins) were sown in a 8-13 cm diameter pot filled with natural soil of a standard field soil (loamy silt; non-sterile) and covered with a covering soil layer of about 1 cm. The pots were then cultivated in a greenhouse (12-16 h of light, temperature day 20-22° C., night 15-18° C.) until the time of application. The pots were treated on a laboratory track sprayer with spray liquors comprising the compositions according to the invention, mixtures of the prior art or components used individually. Application of the active compounds or active compound combinations formulated as WG, WP, EC or otherwise was carried out at the appropriate growth stages of the plants. The application rate for the spray application was 100-600 l of water/ha. After the treatment, the plants were returned to the greenhouses.
(§2) About 3 weeks after the application, the soil action or/and foliar action was assessed visually according to a scale of 0-100% in comparison to an untreated comparative group: 0%=no noticeable effect compared to the untreated comparative group; 100%=full effect compared to the untreated comparative group.
(§3) (notes: the term “seeds” also includes vegetative propagation forms such as, for example, rhizome pieces; abbreviations used: h light=hours of illumination, g of AS/ha=gram of active substance per hectare, l/ha=liter per hectare, S=sensitive, R=resistant) • 1. Pre-emergence action against weeds: seeds of various broad-leaved weed and weed grass biotypes (origins) were sown in a 8-13 cm diameter pot filled with natural soil of a standard field soil (loamy silt; non-sterile) and covered with a covering soil layer of about 1 cm. The pots were then cultivated in a greenhouse (12-16 h of light, temperature day 20-22° C., night 15-18° C.) until the time of application. The pots were treated at the BBCH stage 00-10 of the seeds/plants on a laboratory track sprayer with spray liquors comprising the compositions according to the invention, mixtures or components used individually, as WG, WP, EC or other formulations. The application rate for the spray application was 100-600 l of water/ha. After the treatment, the plants were returned to the greenhouses and, when required, treated with fertilizer and watered. • 2. Post-emergence action against weeds: seeds of various broad-leaved weed and weed grass biotypes (origins) were sown in a 8-13 cm diameter pot filled with natural soil of a standard field soil (loamy silt; non-sterile) and covered with a covering soil layer of about 1 cm. The pots were then cultivated in a greenhouse (12-16 h of light, temperature day 20-22° C., night 15-18° C.) until the time of application. The pots were treated at various BBCH stages between 11-25 of the seeds/plants, i.e. generally between two to three weeks after the start of the cultivation, on a laboratory track sprayer with spray liquors comprising the compositions according to the invention, mixtures or components used individually, as WG, WP, EC or other formulations. The application rate for the spray application was 100-600 l of water/ha. After the treatment, the plants were returned to the greenhouses and, when required, treated with fertilizer and watered. • 3. Pre-emergence action against weeds with and without incorporation of active compound: seeds of various broad-leaved weed and weed grass biotypes (origins) were sown in a 8-13 cm diameter pot filled with natural soil of a standard field soil (loamy silt; non-sterile). […]

[2] = test system: Stellaria media (STEME); assay: as above; settings: g of AS/ha: A 75, B 60, C 70, mixture 75 + 60 + 70
Protocol: as §1, §2, §3

[3] = test system: Triticum aestivum, winter wheat (TRZAW); assay: Greenhouse trial: PE soil application vs incorporation into the soil, crop plant (test methods 1, 3 and 4); settings: g of AS/ha: A 75, B 60, C 70, mixture 75 + 60 + 70
Protocol: as §1, §2, §3

[4] = test system: Apera Spica-venti (APESV); assay: Greenhouse trial: PO application (test methods 2 and 5); settings: g of AS/ha: A 240, B 120, C 140, mixture 240 + 120 + 140
Protocol: as §1
as §2, with “group. […]” for “group.”

[5] = test system: Hordeum vulgare, summer barley (HORVS); assay: Greenhouse trial: PO application, crop plant (test methods 2 and 5); settings: g of AS/ha: A 240, B 120, C 140, mixture 240 + 120 + 140
Protocol: as §1, §2
(notes: the term “seeds” also includes vegetative propagation forms such as, for example, rhizome pieces; abbreviations used: h light=hours of illumination, g of AS/ha=gram of active substance per hectare, l/ha=liter per hectare, S=sensitive, R=resistant) • 1. Pre-emergence action against weeds: seeds of various broad-leaved weed and weed grass biotypes (origins) were sown in a 8-13 cm diameter pot filled with natural soil of a standard field soil (loamy silt; non-sterile) and covered with a covering soil layer of about 1 cm. The pots were then cultivated in a greenhouse (12-16 h of light, temperature day 20-22° C., night 15-18° C.) until the time of application. […]

[6] = test system: Avena fatua (AVEFA); assay: Greenhouse trial: pre-sowing method vs PE application (test method 6); settings: g of AS/ha: A 90, B 90, C 140, mixture 90 + 90 + 140
Protocol: as §1, §2, §3

[7] = test system: Lolium perenne (LOLPE); assay: as above; settings: g of AS/ha: A 90, B 90, C 140, mixture 90 + 90 + 140
Protocol: as §1, §2, §3

[8] = test system: Triticum aestivum, winter wheat (TRZAW); assay: Greenhouse trial: pre-sowing method vs PE application, crop plant (test method 6); settings: g of AS/ha: A 90, B 90, C 140, mixture 90 + 90 + 140
Protocol: as §1, §2, §3

[9] = test system: Matricaria chamomilla (MATCH); assay: Greenhouse trial: different soil types (test method 7); settings: g of AS/ha: A 90, B 90, C 140, mixture 90 + 90 + 140
Protocol: as §1, §2, §3

[10] = test system: Stellaria media (STEME); assay: as above; settings: g of AS/ha: A 90, B 90, C 140, mixture 90 + 90 + 140
Protocol: as §1, §2, §3

[11] = test system: Hordeum vulgare, summer barley (HORVS); assay: Greenhouse trial: different soil types, crop plant (test method 7); settings: g of AS/ha: A 90, B 90, C 140, mixture 90 + 90 + 140
Protocol: as §1, §2, §3

[12] = test system: Hordeum vulgare, summer barley (HORVS); assay: Greenhouse trial: different sowing depths on PE application, crop plant (test method 9); settings: g of AS/ha: A 90, B 90, C 140, mixture 90 + 90 + 140; for activity HORVS 5 mm (visual, scale 0-100%): Sowing depth 5 mm; for activity HORVS 20 mm (visual, scale 0-100%): Sowing depth 20 mm
Protocol: as §1, §2, §3

[13] = test system: Hordeum vulgare, summer barley (HORVS); assay: Greenhouse trial: different soil pH values on PE application, crop plant (test method 11); settings: for activity HORVS pH 7.4 (visual, scale 0-100%): soil pH 7.4, g of AS/ha: A 90, B 90, C 140, mixture 90 + 90 + 140; for activity HORVS pH 8.4 (visual, scale 0-100%): soil pH 8.4, g of AS/ha: A 90, B 90, C 140, mixture 90 + 90 + 140
Protocol: as §1, §2, §3

[14] = test system: Avena fatua (AVEFA); assay: Greenhouse trial: different soil pH values on PE application (test method 11); settings: for activity AVEFA pH 7.4 (visual, scale 0-100%): soil pH 7.4, g of AS/ha: A 90, B 90, C 140, mixture 90 + 90 + 140; for activity AVEFA pH 8.4 (visual, scale 0-100%): soil pH 8.4, g of AS/ha: A 90, B 90, C 140, mixture 90 + 90 + 140
Protocol: as §1, §2, §3

[15] = test system: Lolium species (LOLSS), sensitive and resistant biotypes; assay: Greenhouse trial: resistant biotypes following PE application (test method 8); settings: g of AS/ha: A 90, B 90, C 140, mixture 90 + 90 + 140, iodosulfuron 10
Protocol: as §1
as §2, with “group. […]” for “group.”

[16] = test system: Matricaria chamomilla (MATCH); assay: Greenhouse trial: different sowing depths on PE application (test method 9); settings: g of AS/ha: A 90, B 90, C 140, mixture 90 + 90 + 140
Protocol: as §1
as §2, with “group. […]” for “group.”

[17] = Application 7 days prior to sowing

Compound | activity POAAN (visual, scale 0-100%) ([1]; Incorporation into the soil) [%] | activity POAAN (visual, scale 0-100%) ([1]; PE application) [%] | activity STEME (visual, scale 0-100%) ([2]; PE application) [%] | activity TRZAW (visual, scale 0-100%) ([3]; Incorporation into the soil) [%] | activity TRZAW (visual, scale 0-100%) ([3]; PE application) [%] | activity APESV (visual, scale 0-100%) [4] [%] | activity HORVS (visual, scale 0-100%) [5] [%] | activity LOLPE (visual, scale 0-100%) ([7]; PE application) [%] | activity TRZAW (visual, scale 0-100%) [8, 17] [%] | activity TRZAW (visual, scale 0-100%) ([8]; PE application) [%] | activity STEME IU soil (visual, scale 0-100%) [10] [%] | activity STEME IU/EC73 soil (visual, scale 0-100%) [10] [%] | activity HORVS IU soil (visual, scale 0-100%) [11] [%] | activity HORVS IU/EC73 soil (visual, scale 0-100%) [11] [%] | activity HORVS 5 mm (visual, scale 0-100%) [12] [%] | activity HORVS 20 mm (visual, scale 0-100%) [12] [%] | activity HORVS pH 7.4 (visual, scale 0-100%) [13] [%] | activity HORVS pH 8.4 (visual, scale 0-100%) [13] [%] | activity AVEFA pH 7.4 (visual, scale 0-100%) [14] [%] | activity AVEFA pH 8.4 (visual, scale 0-100%) [14] [%] | further results
CC(C)N(C(=O)COc1nnc(C(F)(F)F)s1)c1ccc(F)cc1 [(A) flufenacet, N-(4-fluorophenyl)-N-(1-methylethyl)-2-[[5-(trifluoromethyl)-1,3,4-thiadiazol-2-yl]oxy]acetamide] | 90 | 65 | 0 | 60 | 20 | 65 | 60 | 90 | 60 | 30 | 0 | 0 | 10 | 0 | 30 | 20 | 10 | 10 | 80 | 55 | activity AVEFA (visual, scale 0-100%) ([6]; PE application): 80%; activity MATCH IU soil (visual, scale 0-100%) [9]: 28%
O=C(Nc1ccc(F)cc1F)c1cccnc1Oc1cccc(C(F)(F)F)c1 [(B) diflufenican, N-(2,4-difluorophenyl)-2-[3-(trifluoromethyl)phenoxy]-3-pyridinecarboxamide] | 75 |  |  | 20 | 10 |  | 5 | 60 | 10 | 10 | 95 | 38 | 0 | 0 | 30 | 5 | 0 | 0 | 0 | 30 | activity LOLPE (visual, scale 0-100%) [7, 17]: 0%
CSc1nnc(C(C)(C)C)c(=O)n1N [(C) metribuzin, 4-amino-6-(1,1-dimethylethyl)-3-(methylthio)-1,2,4-triazin-5(4H)-one] | 15 | 0 | 75 | 55 | 30 | 79 | 70 | 50 | 0 | 55 | 75 | 5 | 0 | 0 | 70 | 30 | 40 | 50 | 90 | 90 | activity STEME (visual, scale 0-100%) ([2]; Incorporation into the soil): 0%; activity AVEFA (visual, scale 0-100%) [6, 17]: 0%; activity AVEFA (visual, scale 0-100%) ([6]; PE application): 10%; activity LOLPE (visual, scale 0-100%) [7, 17]: 10%; activity MATCH IU soil (visual, scale 0-100%) [9]: 0%; activity MATCH IU/EC73 soil (visual, scale 0-100%) ([9]; IU/EC73 soil): 15%; activity LOLSS resistant (visual, scale 0-100%) ([15]; resistant biotype): 70%; activity LOLSS sensitive (visual, scale 0-100%) ([15]; sensitive biotype): 70%; activity MATCH 5 mm (visual, scale 0-100%) ([16]; Sowing depth 5 mm): 100%; activity MATCH 20 mm (visual, scale 0-100%) ([16]; Sowing depth 20 mm): 70%
